Data reported in publication PMC7024302, “Ultrashort Cationic Lipopeptides–Effect of N-Terminal Amino Acid and Fatty Acid Type on Antimicrobial Activity and Hemolysis” (Molecules, 2020).
Converted amounts (≈) assume the structure as drawn. Residues, ends and D or L forms follow the SMILES beside them. *: point of attachment. Myristoyl = CCCCCCCCCCCCCC(=O)*; Acm = CC(=O)NC*

Experiments:
[1] = Determination of peptide hydrophobicity with RP-HPLC (adjusted retention time); assay type: physicochemical; conditions: RP-HPLC C18, linear 10–55% acetonitrile over 60 min, 0.1% TFA, 25.0 °C, UV 214 nm, triplicate; for tR’: Table 3, adjusted retention time as hydrophobicity
Outline: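 Peptides at 1 g/L in water with 0.1% TFA run on a C18 column (3.0 × 100 mm, 5 µm). Elution with a linear 10–55% acetonitrile gradient over 60 min, 0.1% TFA in both eluents, 0.5 mL/min, 25.0 ± 0.1 °C. Detection at 214 nm, in triplicate.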

P. aeruginosa ATCC 9027 = assay type: cell-based, Pseudomonas aeruginosa; conditions: ATCC 9027, 18 h
Outline: (§1)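 Lipopeptides, tested from 0.5 to 256 µg/mL, were incubated with bacteria (5 × 10^5 CFU/mL, MHB) for 18 h at 37 °C following CLSI guidance. Triplicate determinations gave the MIC as the lowest growth-inhibiting concentration.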

C. albicans ATCC 10231 = assay type: cell-based, Candida albicans; conditions: ATCC 10231, 24 h, pH 7
K. aerogenes ATCC 13048 = assay type: cell-based, Klebsiella aerogenes; conditions: ATCC 13048, 18 h
Outline: as §1

[2] = system: S. aureus ATCC 33591 (MRSA); assay type: cell-based, Staphylococcus aureus; conditions: ATCC 33591, 18 h
Outline: as §1

S. aureus ATCC 25923 = assay type: cell-based, Staphylococcus aureus; conditions: ATCC 25923, 18 h
Outline: as §1

E. faecium ATCC 700221 = assay type: cell-based, Enterococcus faecium; conditions: ATCC 700221, 18 h
Outline: as §1

[3] = system: K. pneumoniae ATCC 700603; assay type: cell-based, Klebsiella pneumoniae; conditions: ATCC 700603, 18 h
Outline: as §1

[4] = system: A. baumannii ATCC BAA-1605; assay type: cell-based, Acinetobacter baumannii; conditions: ATCC BAA-1605, 18 h
Outline: as §1

[5] = system: human red blood cells (hRBCs); assay type: cell-based; conditions: red cells of human, 1 h
Outline: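 Fresh EDTA-anticoagulated human RBCs, PBS-washed, at 4% (v/v) final were exposed to lipopeptides at 0.5–256 µg/mL for 1 h at 37 °C. Released haemoglobin in supernatant read at 540 nm; PBS as 0% and 1% Triton X-100 as 100% haemolysis. Triplicates.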

[6] = set-up: method as in earlier work; conditions: cited from earlier work

SMILES	tR’ [1] [min]	MIC PA (P. aeruginosa ATCC 9027) [µg/mL]	MIC CA (C. albicans ATCC 10231) [µg/mL]	MIC E2 (K. aerogenes ATCC 13048)	MIC S [2] [µg/mL]	MIC SA (S. aureus ATCC 25923)	MIC E1 (E. faecium ATCC 700221)	MIC K [3]	MIC A [4] [µg/mL]	HC50 [5]	Adjusted retention time ([1]; Table 2, nC = carbon atoms in fatty acid chain) [min]	pKa of the side chain [6]
CCCCCCCCCCCCCC(=O)N[C@@H](Cc1c[nH]cn1)C(=O)N[C@@H](CCCNC(=N)N)C(=O)N[C@@H](CCCNC(=N)N)C(N)=O [compound 34, C14-HRR-NH2] (HELM PEPTIDE1{[CCCCCCCCCCCCCC(=O)[*:2]].H.R.R.[am]}$$$$V2.0)	35.80	64 (≈ 94.5 µM)	16 (≈ 23.6 µM)	256 µg/mL (≈ 378 µM)	16 (≈ 23.6 µM)	16 µg/mL (≈ 23.6 µM)	8 µg/mL (≈ 11.8 µM)	256 µg/mL (≈ 378 µM)	128 (≈ 189 µM)	50.31 (±0.52) µg/mL	–	–
CCCCCCCCCCCC(=O)N[C@@H](CCCNC(=N)N)C(=O)N[C@@H](CCCNC(=N)N)C(=O)N[C@@H](CCCNC(=N)N)C(N)=O [compound 81, C12-RRR-NH2] (HELM PEPTIDE1{[CCCCCCCCCCCC(=O)[*:2]].R.R.R.[am]}$$$$V2.0)	30.00	128 (≈ 192 µM)	128 (≈ 192 µM)	>256 (-) µg/mL	32 (≈ 47.9 µM)	16 (>16) µg/mL	16 (>16) µg/mL	>256 (-) µg/mL	256 (≈ 383 µM)	>256 µg/mL	–	–
CCCCCCCCCCCCCC(=O)N[C@@H](CCC(N)=O)C(=O)N[C@@H](CCCNC(=N)N)C(=O)N[C@@H](CCCNC(=N)N)C(N)=O [compound 78, C14-QRR-NH2] (HELM PEPTIDE1{[CCCCCCCCCCCCCC(=O)[*:2]].Q.R.R.[am]}$$$$V2.0)	38.52	32 (≈ 47.9 µM)	32 (≈ 47.9 µM)	256 µg/mL (≈ 383 µM)	16 (≈ 24 µM)	16 µg/mL (≈ 24 µM)	16 µg/mL (≈ 24 µM)	256 µg/mL (≈ 383 µM)	64 (≈ 95.8 µM)	72.31 (±3.00) µg/mL	–	–
CCCCCCCCCCCCCC(=O)N[C@@H](CCCCN)C(=O)N[C@@H](CCCNC(=N)N)C(=O)N[C@@H](CCCNC(=N)N)C(N)=O [compound 42, C14-KRR-NH2] (HELM PEPTIDE1{[CCCCCCCCCCCCCC(=O)[*:2]].K.R.R.[am]}$$$$V2.0)	35.66	64 (≈ 95.8 µM)	32 (≈ 47.9 µM)	64 µg/mL (≈ 95.8 µM)	8 (≈ 12 µM)	8 µg/mL (≈ 12 µM)	8 µg/mL (≈ 12 µM)	128 µg/mL (≈ 192 µM)	64 (≈ 95.8 µM)	212.08 (±6.12) µg/mL	–	–
CCCCCCCCCCCC(=O)N[C@@H](CC(C)C)C(=O)N[C@@H](CCCNC(=N)N)C(=O)N[C@@H](CCCNC(=N)N)C(N)=O [compound 45, C12-LRR-NH2] (HELM PEPTIDE1{[CCCCCCCCCCCC(=O)[*:2]].L.R.R.[am]}$$$$V2.0)	39.82	16 (≈ 25.6 µM)	16 (≈ 25.6 µM)	256 µg/mL (≈ 410 µM)	16 (≈ 25.6 µM)	8 µg/mL (≈ 12.8 µM)	16 µg/mL (≈ 25.6 µM)	256 µg/mL (≈ 410 µM)	64 (≈ 102 µM)	112.81 (±1.39) µg/mL	39.821	–
CCCCCCCCCCCCCC(=O)N[C@@H](CC[S+](C)[O-])C(=O)N[C@@H](CCCNC(=N)N)C(=O)N[C@@H](CCCNC(=N)N)C(N)=O (stereo partly shown) [compound 54, C14-M(O)RR-NH2] (HELM PEPTIDE1{[CCCCCCCCCCCCCC(=O)[*:2]].[CS(=O)CC[C@H](N[*:1])C(=O)[*:2]].R.R.[am]}$$$$V2.0)	39.18	64 (≈ 93.2 µM)	32 (≈ 46.6 µM)	>256 (-) µg/mL	16 (≈ 23.3 µM)	32 µg/mL (≈ 46.6 µM)	16 µg/mL (≈ 23.3 µM)	256 µg/mL (≈ 373 µM)	64 (≈ 93.2 µM)	116.28 (±1.77) µg/mL	–	–
NCCCC[C@H](N)C(=O)O [Lys, lysine]	–	–	–	–	–	–	–	–	–	–	–	10.67
CCCCCCCCCCCCCC(=O)N[C@@H](Cc1ccc(O)cc1)C(=O)N[C@@H](CCCNC(=N)N)C(=O)N[C@@H](CCCNC(=N)N)C(N)=O [compound 102, C14-YRR-NH2] (HELM PEPTIDE1{[CCCCCCCCCCCCCC(=O)[*:2]].Y.R.R.[am]}$$$$V2.0)	42.73	8 (≈ 11.4 µM)	4 (≈ 5.69 µM)	64 µg/mL (≈ 91 µM)	4 (≈ 5.69 µM)	4 µg/mL (≈ 5.69 µM)	4 µg/mL (≈ 5.69 µM)	32 µg/mL (≈ 45.5 µM)	32 (≈ 45.5 µM)	46.52 (±5.24) µg/mL	–	–
CCCCCCCCCCCCCC(=O)N[C@@H](CCS(C)(=O)=O)C(=O)N[C@@H](CCCNC(=N)N)C(=O)N[C@@H](CCCNC(=N)N)C(N)=O [compound 58, C14-M(O2)RR-NH2] (HELM PEPTIDE1{[CCCCCCCCCCCCCC(=O)[*:2]].[CS(=O)(=O)CC[C@H](N[*:1])C(=O)[*:2]].R.R.[am]}$$$$V2.0)	41.17	32 (≈ 45.5 µM)	16 (≈ 22.8 µM)	256 µg/mL (≈ 364 µM)	16 (≈ 22.8 µM)	16 µg/mL (≈ 22.8 µM)	8 µg/mL (≈ 11.4 µM)	256 µg/mL (≈ 364 µM)	32 (≈ 45.5 µM)	70.11 (±2.93) µg/mL	–	–
CCCCCCCCCCCCCC(=O)N[C@@H](C)C(=O)N[C@@H](CCCNC(=N)N)C(=O)N[C@@H](CCCNC(=N)N)C(N)=O [compound 10, C14-ARR-NH2] (HELM PEPTIDE1{[CCCCCCCCCCCCCC(=O)[*:2]].A.R.R.[am]}$$$$V2.0)	40.92	32 (≈ 52.4 µM)	16 (≈ 26.2 µM)	256 µg/mL (≈ 419 µM)	16 (≈ 26.2 µM)	8 µg/mL (≈ 13.1 µM)	8 µg/mL (≈ 13.1 µM)	256 µg/mL (≈ 419 µM)	32 (≈ 52.4 µM)	41.08 (±0.62) µg/mL	–	–
CCCCCCCCCCCCCC(=O)N[C@@H](CSCNC(C)=O)C(=O)N[C@@H](CCCNC(=N)N)C(=O)N[C@@H](CCCNC(=N)N)C(N)=O [compound 14, C14-C(Acm)RR-NH2] (Myristoyl-Cys(Acm)-Arg-Arg-NH2)	43.24	16 (≈ 22.4 µM)	8 (≈ 11.2 µM)	256 µg/mL (≈ 359 µM)	16 (≈ 22.4 µM)	16 µg/mL (≈ 22.4 µM)	8 µg/mL (≈ 11.2 µM)	256 µg/mL (≈ 359 µM)	16 (≈ 22.4 µM)	39.72 (±1.25) µg/mL	–	–
CCCCCCCCCCCCCC(=O)N[C@H](C(=O)N[C@@H](CCCNC(=N)N)C(=O)N[C@@H](CCCNC(=N)N)C(N)=O)[C@@H](C)O [compound 90, C14-TRR-NH2] (HELM PEPTIDE1{[CCCCCCCCCCCCCC(=O)[*:2]].T.R.R.[am]}$$$$V2.0)	40.80	32 (≈ 49.9 µM)	8 (≈ 12.5 µM)	128 µg/mL (≈ 200 µM)	8 (≈ 12.5 µM)	8 µg/mL (≈ 12.5 µM)	8 µg/mL (≈ 12.5 µM)	128 µg/mL (≈ 200 µM)	64 (≈ 99.9 µM)	43.43 (±0.90) µg/mL	–	–
